# Earlier results, collected in patent US4897502A, “Process for making solid polyhalotriaryl phosphate esters” (priority 1987, dated 1990).
# Details: 100 g ethanol, 0° C.
row,Molecule,magnesium chloride dissolving in 100 g ethanol
1,[Cl-].[Cl-].[Mg+2] [magnesium chloride],3.61 g

# Same assay, conditions: 100 g methanol, 0° C.
row,Molecule,magnesium chloride dissolving in 100 g methanol
1,[Cl-].[Cl-].[Mg+2] [magnesium chloride],15.5 g

# Details: Table I
Molecule,Hildebrand Solubility Parameter,Hansen Dispersion Component
CCCCC(CC)CO (centres unmarked) [2-ethylhexanol],20.8 SI,–
"CCCCCCCCCCO [Example 1-decanol, 1-decanol]",20.5 SI,15.4 SI
"CCCCCCCO [Example 1-heptanol, 1-heptanol]",–,15.1 SI
"CCCCCCO [Example 1-hexanol, 1-hexanol]",–,15.0 SI
"CCCCCCCCO [Example 1-octanol, 1-octanol]",21.1 SI,15.2 SI
"CCCCCO [Example 1-pentanol, 1-pentanol]",–,14.4 SI
"CCC(C)O (centres unmarked) [Example 2-butanol, 2-butanol]",22.7 SI,14.5 SI
"CCCCCC(C)O (centres unmarked) [Example 2-heptanol, 2-heptanol]",–,14.6 SI
"CCCC(C)O (centres unmarked) [Example 2-pentanol, 2-pentanol]",22.2 SI,15.0 SI
"CCCCC(O)CC (centres unmarked) [Example 3-heptanol, 3-heptanol]",20.2 SI,14.6 SI
amyl alcohol [amyl alcohol (pract.)],–,14.5 SI

# Same assay, conditions: comparison liquids
row,Molecule,Hansen Dispersion Component
1,"CC(C)O [Example 2-propanol, 2-propanol]",7.6
2,CO [methanol],7.4
